One test relates to Hsc70. Nature of the test: Detection of Hsc70 gene expression level upon action of compound on 2.2.15 cells (real-time fluorescent quantified PCR). Further details: Hsc70 mRNA / Hsc70 down-regulation rate (%): unit not given here. The conditions noted are these: 2.2.15 cells; down-regulation of liver cell Hsc70 gene. In kind it is cell-based. The protocol: 2.2.15 cells (purchased from Vertex Pharmaceutical Co., USA) in a number of 1×10^6 were inocubated to 6-well plate, cultured in a culture medium containing 10% fetal calf serum for 24 hr, the original culture medium was discarded, replaced with a culutre medium containing 400 μg/ml OMTR, which was used as control. Compounds were firstly dissolved in MEM to form 20 mg/ml mother liquid, which was diluted with culture medium when used and then applied to cells. The compounds of Examples 1-114 were separately used for treatment for 12, 24, 36 hr, then cells were harvested for extraction of RNA and DNA, then the changes of Hsc70 mRNA and HBV DNA were detected by real-time fluorescent quantified PCR.
For `CC(=O)OC1CC2C3CCCN4CCCC(CN2C(=O)C1O)C34` (stereo not shown) [Compound 9j, 14-hydroxyl-13-acetyloxy matrine], the “Hsc70 mRNA” value is given as 54.8 ± 0.21.
Same read-out and setting: for `O=C(OC1CC2C3CCCN4CCCC(CN2C(=O)C1O)C34)c1ccccc1` (stereo not shown) [Compound 9h, 14-hydroxyl-13-benzoyloxy matrine] the value was 34.5 ± 0.10.
The same measure, in the same setting: for `O=C1CC(C[N+](=O)[O-])CC2C3CCCN4CCCC(CN12)C34` (stereo not shown) [Compound 7a, 13-nitromethyl matrine] the value was 35.8 ± 0.09.
For `CC(=O)OC1CC2C3CCCN4CCCC(CN2C(=O)C1O)C34` (stereo not shown) [Compound 9e, 14-hydroxyl-13-acetyloxy matrine], the “Hsc70 mRNA” value is 37.1 ± 0.16.
The same measure, in the same setting: with `O=C1CCC[C@@H]2[C@H]3CCCN4CCC[C@@H](CN12)[C@@H]34` [Compound 2, reference compound] the figure was 52.4 ± 0.17.
On the same count and under the same terms, with `COC1CC(=O)N2CC3CCCN4CCCC(C34)C2C1` (stereo not shown) [Compound 6a, 13-methoxy matrine] the figure was 48.6 ± 0.16; with `O=C(OC1CC2C3CCCN4CCCC(CN2C(=O)C1OC(=O)c1ccc(F)c([N+](=O)[O-])c1)C34)c1ccc(F)c([N+](=O)[O-])c1` (stereo not shown) [Compound 9d, 13,14-di(4-fluoro-3-nitro) benzoyloxy matrine], 30.8 ± 0.06; with `O=C1CC(OCc2ccccc2)CC2C3CCCN4CCCC(CN12)C34` (stereo not shown) [Compound 6c, 13-benzyloxy matrine], 24.7 ± 0.10.
On the same count and under the same terms, with `CNC1CC(=O)N2C[C@@H]3CCCN4CCC[C@@H]([C@H]34)[C@H]2C1` (stereo partly shown) [Compound 7b, 13-methylaminomatrine] the figure was 40.1 ± 0.09.
With `COC1CC2C3CCCN4CCCC(CN2C(=O)C1OC)C34` (stereo not shown) [Compound 9a, 13,14-dimethoxy matrine], the “Hsc70 mRNA” value came to 39.3 ± 0.20.
On the same count and under the same terms, for `O=C1C=CCC2C3CCC[N+]4([O-])CCCC(CN12)C34` (stereo not shown) [Compound 4, oxidized sophocarpine] the value was 15.3 ± 0.21; for `CC(Cl)C(=O)OC1CC2C3CCCN4CCCC(CN2C(=O)C1O)C34` (stereo not shown) [Compound 9g, 14-hydroxyl-13-2-chloropropionyloxy matrine], 48.6 ± 0.11.
On the same count and under the same terms, for `O=C1C(OCc2ccccc2)C(OCc2ccccc2)CC2C3CCCN4CCCC(CN12)C34` (stereo not shown) [Compound 9b, 13,14-dibenzyloxy matrine] the value was 45.4 ± 0.11; for `O=C1CCC[C@@H]2[C@H]3CCC[N+]4([O-])CCC[C@@H](CN12)[C@@H]34` (stereo partly shown) [Compound 1, reference compound], 55.0 ± 0.10.
The same measure, in the same setting: with `O=C(CCl)OC1CC2C3CCCN4CCCC(CN2C(=O)C1O)C34` (stereo not shown) [Compound 9f, 14-hydroxyl-13-chloroacetyloxy matrine] the figure was 88.2 ± 0.21; with 13,14-diacetyloxy matrine [Compound 9c], below 10.
`O=C(OC1CC(=O)N2C[C@@H]3CCCN4CCC[C@@H]([C@H]34)[C@H]2C1)c1ccccc1` (stereo partly shown) [Compound 6d, 13-benzoyloxy matrine]: the “Hsc70 mRNA” value was determined as 51.0 ± 0.11.
As to `O=C1C=CCC2C3CCCN4CCCC(CN12)C34` (stereo not shown) [Compound 3, reference compound], the “Hsc70 mRNA” value is recorded as 21.6 ± 0.13.
On the same count and under the same terms, with `O=C(OC1CC2C3CCCN4CCCC(CN2C(=O)C1O)C34)c1ccc(F)c([N+](=O)[O-])c1` (stereo not shown) [Compound 9i, 14-hydroxyl-13-(4-fluoro-3-nitro)benzoyloxy matrine] the figure was 43.4 ± 0.08.

The test is the same for the next values; noted with them: 2.2.15 cells; relative to OMT (= 1).
Consider `O=C(O)CCCC1C2CCC[N+]3([O-])CCCC(CN1Cc1ccccc1)C23` (stereo not shown) [DM-1081, N-benzyl oxymatrinic acid], for which the “Hsc70 inhibition rate (down-regulation of Hsc70 expression activity, expressed in relative OMT ratio)” value amounted to 1.26.
The same measure, in the same setting: for `O=C(O)CCCC1C2CCCN3CCCC(CN1CC1CC1)C23` (stereo not shown) [DM-115, N-cyclopropylmethyl matrinic acid] the value was −33.
On the same count and under the same terms, with `CCCN1CC2CCCN3CCCC(C1CCCC(=O)O)C23` (stereo not shown) [DM-113, N-propyl matrinic acid] the figure was below 10; with `O=C1CCC[C@@H]2[C@H]3CCCN4CCC[C@@H](CN12)[C@@H]34` [MT, Matrine], −16; with `O=C(O)CCCC1C2CCCN3CCCC(CN1C(=O)CO)C23` (stereo not shown) [DM-105, N-(2-hydroxyl)acetylmatrinic acid], below 10.
As to `O=CN1CC2CCCN3CCCC(C1CCCC(=O)O)C23` (stereo not shown) [DM-106a, N-formylmatrinic acid], the “Hsc70 inhibition rate (down-regulation of Hsc70 expression activity, expressed in relative OMT ratio)” value is recorded as −54.
Turning to `O=C(O)CCCC1C2CCCN3CCCC(CN1C(=O)CCl)C23` (stereo not shown) [DM-104, N-chloroacetyl matrinic acid], the “Hsc70 inhibition rate (down-regulation of Hsc70 expression activity, expressed in relative OMT ratio)” value is listed as −7.
On the same count and under the same terms, with N,N-dimethyl oxymatrinic acid [DM-1111] the figure was −0.25.
On the same count and under the same terms, with `O=C(O)CCCC1C2CCCN3CCCC(CN1C(=O)c1ccccc1)C23` (stereo not shown) [DM-107, N-benzoyl matrinic acid] the figure was 1.04; with `Cc1cccc(OCC(=O)N2CC3CCCN4CCCC(C34)C2CCCC(=O)O)c1` (stereo not shown) [DM-104a, N-(2-m-methylphenoxy)acetyl matrinic acid], −2.98.
For `O=C(O)CCCC1C2CCCN3CCCC(CN1Cc1ccccc1)C23` (stereo not shown) [DM-108, N-benzylmatrinic acid], the “Hsc70 inhibition rate (down-regulation of Hsc70 expression activity, expressed in relative OMT ratio)” value worked out at 1.25.
With `O=C(O)CCCC1NCC2CCC[N+]3([O-])CCCC1C23` (stereo not shown) [DM-1001, N-oxidized matrinic acid], the “Hsc70 inhibition rate (down-regulation of Hsc70 expression activity, expressed in relative OMT ratio)” value turned out to be 0.92.
Still for that read-out and setting: for `O=C(O)CCCC1C2CCC[N+]3([O-])CCCC(CN1CC1CC1)C23` (stereo not shown) [DM-1151, N-cyclopropylmethyl oxymatrinic acid] the value was 0.52; for `Cc1ccc(S(=O)(=O)N2CC3CCCN4CCCC(C34)C2CCCC(=O)O)cc1` (stereo not shown) [DM-102, N-(4-methylbenzenesulfonyl) matrinic acid], 1.1.
Still for that read-out and setting: with `C=C(C)[C@H](CCC(C)(C)O)Cc1c(O)cc(OC)c2c1O[C@H](c1ccc(O)cc1O)CC2=O` [DM-200, kurarinol] the figure was 0.81.
On to N-oxidized kurarinol [DM-2001], for which the “Hsc70 inhibition rate (down-regulation of Hsc70 expression activity, expressed in relative OMT ratio)” value is reported as −0.42.
For `COc1ccc(CN2CC3CCC[N+]4([O-])CCCC(C2CCCC(=O)O)C34)cc1` (stereo not shown) [DM-1221, N-(4-methoxybenzyl) oxymatrinic acid], the “Hsc70 inhibition rate (down-regulation of Hsc70 expression activity, expressed in relative OMT ratio)” value is 1.34.
On the same count and under the same terms, with `C[N+]1(C)CC2CCCN3CCCC(C23)C1CCCC(=O)[O-]` (stereo not shown) [DM-111, N,N-dimethyl matrinic acid] the figure was 0.25; with `O=C(O)CCCC1C2CCCN3CCCC(CN1CCO)C23` (stereo not shown) [DM-117, N-(2-hydroxyl)ethyl matrinic acid], 0.84.
Same read-out and setting: for `Cc1cccc(OC(C)C(=O)N2CC3CCCN4CCCC(C34)C2CCCC(=O)O)c1` (stereo not shown) [DM-106, N-(2-m-methylphenoxy)propionylmatrinic acid] the value was 1.67; for `O=C(O)CCCC1C2CCCN3CCCC(CN1C(=O)C=Cc1ccccc1)C23` (stereo not shown) [DM-110, N-cinnamoyl matrinic acid], below 10; for `COc1cccc(CN2CC3CCCN4CCCC(C2CCCC(=O)O)C34)c1` (stereo not shown) [DM-142, N-(3-methoxy)benzyl matrinic acid], 1.07.
The same measure, in the same setting: with `O=C1CCC[C@@H]2[C@H]3CCC[N+]4([O-])CCC[C@@H](CN12)[C@@H]34` (stereo partly shown) [OMT, Oxymatrine, reference compound] the figure was 1.
With `O=C(O)CCCC1C2CCCN3CCCC(CN1S(=O)(=O)c1ccccc1)C23` (stereo not shown) [DM-109, N-benzenesulfonyl matrinic acid], the “Hsc70 inhibition rate (down-regulation of Hsc70 expression activity, expressed in relative OMT ratio)” value is given as below 10.
Consider `CCN1CC2CCCN3CCCC(C1CCCC(=O)O)C23` (stereo not shown) [DM-112, N-ethyl matrinic acid], for which the “Hsc70 inhibition rate (down-regulation of Hsc70 expression activity, expressed in relative OMT ratio)” value is on record as below 10.

The next test has as its system HCV. Nature of the test: Inhibition effects of compounds on HCV in Huh7.5 cultured cell after HCV infection. In kind it is cell-based. Conditions: HCV-infected Huh7.5 cells, 200 μg/mL, Western blotting (FIG. 7B). The protocol:
1×10^5/ml Huh7.5 cells (purchased from Vertex Pharmaceutical Co., USA) were inoculated in an amount of 0.1 ml on 96-well culture plate, placed in an incubator with 37° C., 5% CO2 content and saturation humidity, and cultured for 24 h, HCV virus in 45 IU/cell was used to infect Huh7.5, different drug solutions (DM122) formulated with culture medium were added, and cell control and HCV infection control were set. Cultivation was continuously performed in the incubator with 37° C., 5% CO2 content and saturation humidity for 72 h, kit for RNA extraction was used to extract intracellular RNA, one-step qRT-PCR was used to determine intracellular contents of HCV and GAPDH RNA, and the inhibition effects of drug on HCV infection was analyzed. […] In comparison with the virus control group, the inhibition effects on HCV infection upon action of different drugs were analyzed. […] This experiment was repeated for 3 times, * indicated […] in comparison with control, ** indicated p<0.01 in comparison with control.
Background: A western blot detects proteins with antibodies after separation by electrophoresis.
For `CC(Cl)C(=O)OC1CC2C3CCCN4CCCC(CN2C(=O)C1O)C34` (stereo not shown) [Compound 9g, 14-hydroxyl-13-2-chloropropionyloxy matrine], the “anti-HCV activity (HCV nucleoprotein and Hsc70 protein levels)” value is “significant activity on anti-HCV”.
α-interferon: the “anti-HCV activity (HCV nucleoprotein and Hsc70 protein levels)” value is listed as “capable of inhibiting HCV replication”.

The values above are taken from US20130190345A1, “MATRINIC ACID/MATRINE DERIVATIVES AND PREPARATION METHODS AND USES THEREOF” (priority 2010, published 2013).
